The supplement of paper PMC10307832

What was measured:
Assay in all cases: relative viability (nuclei count vs DMSO), 5 days (fraction); higher = more cells survive
[1] = compound: OCc1c[nH]c2ccccc12 [Indole-3-carbinol] + CCNC(=O)c1noc(-c2cc(C(C)C)c(O)cc2O)c1-c1ccc(CN2CCOCC2)cc1 [Luminespib] (partner 0.01 µM)
In short: (§1)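 Relative viability equals treated-well nuclei counts divided by vehicle-well nuclei counts. Counts came from 4× images of lung cancer cell lines grown in 1536-well plates for 5 days after pin-tool dosing on the day after seeding. Dosing used one drug alone or a fixed anchor-drug dose plus five library-drug doses (not always all listed) in √10 steps, and values are medians of duplicate plates.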

[2] = compound: OCc1c[nH]c2ccccc12 [Indole-3-carbinol] + CS(=O)(=O)N1CCN(Cc2cc3nc(-c4cccc5[nH]ncc45)nc(N4CCOCC4)c3s2)CC1 [Pictilisib] (partner 1 µM)
In short: as §1

[3] = compound: OCc1c[nH]c2ccccc12 [Indole-3-carbinol] + C[C@@H](Oc1cc(-c2cnn(C3CCNCC3)c2)cnc1N)c1c(Cl)ccc(F)c1Cl [Crizotinib] (partner 1 µM)
In short: as §1

[4] = compound: OCc1c[nH]c2ccccc12 [Indole-3-carbinol] + C[C@]1(O)C[C@@H](c2nc(-c3ccc4ccc(-c5ccccc5)nc4c3)c3c(N)nccn32)C1 [Linsitinib] (partner 1 µM)
In short: as §1

[5] = compound: OCc1c[nH]c2ccccc12 [Indole-3-carbinol] + N=C(N)NC(=N)NCCc1ccccc1 [Phenformin] (partner 250 µM)
In short: as §1

| Cell Line | relative viability ([1]; first compound 0.253 µM) | relative viability ([1]; first compound 0.8 µM) | relative viability ([1]; first compound 2.53 µM) | relative viability ([1]; first compound 8 µM) | relative viability ([2]; first compound 0.253 µM) | relative viability ([2]; first compound 0.8 µM) | relative viability ([2]; first compound 2.53 µM) | relative viability ([2]; first compound 8 µM) | relative viability ([3]; first compound 0.253 µM) | relative viability ([3]; first compound 0.8 µM) | relative viability ([3]; first compound 2.53 µM) | relative viability ([3]; first compound 8 µM) | relative viability ([4]; first compound 0.253 µM) | relative viability ([4]; first compound 0.8 µM) | relative viability ([4]; first compound 2.53 µM) | relative viability ([4]; first compound 8 µM) | relative viability ([5]; first compound 0.253 µM) | relative viability ([5]; first compound 0.8 µM) | relative viability ([5]; first compound 2.53 µM) | relative viability ([5]; first compound 8 µM) |
| --- | --- | --- | --- | --- | --- | --- | --- | --- | --- | --- | --- | --- | --- | --- | --- | --- | --- | --- | --- | --- |
| NCI-H838 | 0.292 | 0.305 | 0.308 | 0.303 | 0.537 | 0.431 | 0.459 | 0.431 | 0.972 | 0.717 | 0.97 | 0.828 | 1.09 | 0.975 | 1.02 | 0.951 | 0.607 | 0.526 | 0.735 | 0.553 |
| NCI-H3122 | 0.0769 | 0.123 | 0.108 | 0.0975 | 0.553 | 0.673 | 0.592 | 0.588 | 0.289 | 0.293 | 0.281 | 0.292 | 1.02 | 1.03 | 1.07 | 1.04 | 0.391 | 0.364 | 0.413 | 0.381 |
| SK-MES-1 | 0.751 | 0.88 | 0.667 | 0.798 | 0.416 | 0.356 | 0.321 | 0.4 | 0.996 | 1.07 | 1.03 | 0.965 | 1.12 | 1.13 | 1.08 | 1.07 | 0.689 | 0.733 | 0.693 | 0.61 |
| NCI-H1944 | 0.792 | 0.682 | 0.842 | 0.79 | 0.329 | 0.3 | 0.348 | 0.301 | 1.06 | 0.951 | 1.12 | 0.955 | 1.27 | 1.1 | 1.17 | 1.17 | 0.202 | 0.195 | 0.202 | 0.199 |
| LK-2 | 0.214 | 0.203 | 0.229 | 0.181 | 0.475 | 0.46 | 0.977 | 0.628 | 0.239 | 0.218 | 0.198 | 0.229 | 0.627 | 0.572 | 0.47 | 0.536 | 0.245 | 0.381 | 0.606 | 0.563 |
| PC-3 [JPC-3] | 0.644 | 0.796 | 0.722 | 0.658 | 0.817 | 0.801 | 0.649 | 0.73 | 0.946 | 1.08 | 0.997 | 0.969 | 0.948 | 0.985 | 0.922 | 0.887 | 0.477 | 0.483 | 0.483 | 0.473 |
| COR-L23 | 0.74 | 0.754 | 0.712 | 0.512 | 0.876 | 0.848 | 0.828 | 0.674 | 0.751 | 0.724 | 0.748 | 0.485 | 0.962 | 0.862 | 0.993 | 0.786 | 0.413 | 0.456 | 0.41 | 0.403 |
| NCI-H1355 | 0.754 | 0.764 | 0.618 | 0.643 | 0.324 | 0.415 | 0.435 | 0.428 | 1.17 | 1.08 | 0.971 | 1.06 | 0.774 | 0.802 | 0.764 | 0.715 | 0.48 | 0.455 | 0.435 | 0.462 |
| NCI-H460 | 0.0368 | 0.037 | 0.0298 | 0.0346 | 0.479 | 0.271 | 0.373 | 0.337 | 1.03 | 0.895 | 0.925 | 0.851 | 0.773 | 0.875 | 0.713 | 0.689 | 0.535 | 0.482 | 0.53 | 0.498 |
| NCI-H1993 | 1.02 | 0.915 | 0.889 | 0.823 | 0.795 | 0.802 | 0.808 | 0.806 | 0.873 | 0.896 | 0.813 | 0.944 | 0.692 | 0.793 | 0.815 | 0.667 | 0.516 | 0.523 | 0.516 | 0.549 |
| ChaGo-K-1 | 0.649 | 0.658 | 0.576 | 0.557 | 0.524 | 0.891 | 0.666 | 0.649 | 1.21 | 1.04 | 1.18 | 1.1 |  |  |  |  | 0.479 | 0.475 | 0.551 | 0.443 |
| HCC-15 | 0.529 | 0.247 | 0.266 | 0.225 | 0.714 | 0.773 | 0.735 | 0.719 | 0.79 | 0.879 | 0.852 | 0.763 | 0.845 | 1.02 | 0.824 | 0.843 | 0.54 | 0.556 | 0.472 | 0.468 |
| NCI-H23 | 0.219 |  | 0.233 | 0.223 | 0.434 | 0.485 | 0.581 | 0.451 | 0.679 | 0.497 | 0.55 | 0.509 | 0.668 | 0.649 | 0.722 | 0.485 | 0.773 | 0.815 | 0.831 | 0.77 |
| NCI-H1395 | 0.606 | 0.813 | 0.817 | 0.686 | 0.616 | 0.67 | 0.639 | 0.662 |  |  |  |  | 1.04 | 0.974 | 1.02 | 1.14 | 0.434 | 0.405 | 0.432 | 0.457 |
| NCI-H1666 | 0.914 | 0.925 | 1.01 | 1.05 | 0.339 | 0.548 | 0.539 | 0.394 | 1.11 | 0.994 | 1.42 | 0.892 | 0.81 | 0.867 | 0.84 | 0.808 | 0.592 | 0.515 | 0.582 | 0.558 |
| NCI-H2405 | 0.847 | 0.812 | 0.859 | 0.696 | 0.49 | 0.472 | 0.489 | 0.483 | 0.875 | 0.825 | 0.901 | 0.78 | 0.945 | 0.805 | 0.903 | 0.89 | 0.426 | 0.376 | 0.391 | 0.44 |
